# Key:
# [1] = test system: HT-29 tumours and metastases; test: intrasplenic HT-29 colon xenograft spontaneous metastasis model; format: in vivo, mice
# Method: (§1) In the orthotopic Hep3b2.1-7 human liver cancer model, treatment of mice (n=10) began 14 days after inoculation of 2.5 × 10^6 cells. […] To initiate tumour xenografts, MDA-MB-231, PC3, Cal27 and HepG2 cells were injected s.c. into nude mice (n=8) at 4, 5, 2 and 2 × 10^7 cells ml^−1, respectively. […] In the B16F0 lung metastasis model, 2 × 10^5 cells were injected via the tail vein of C57Bl6 mice (n=8). […] Surface lung macrometastases were counted for each group (n=9) upon study termination. In the intrasplenic HT-29 xenograft model, 1 × 10^6 cells in 100 μl were injected into the spleen. […] Solid tumours were measured in two dimensions (length and width) and the tumour volume (cm^3) was calculated using the equation: V=length × width^2 × π/6. The anti-tumour activity was expressed as percent tumour growth inhibition (%TGI). Further details are available in Supplementary Methods. […]
# once weekly or Sorafenib (60mg/kg, once daily, p.o.). The treatments were continued for three weeks. The lungs were excised from all mice at the time of culling for metastasis count determination. Surface lung macrometastases were counted for each group upon […]
# In the HT-29 model, the lumbar region skin was sterilized with 5% tincture and 75% ethanol, respectively. One-cm-long incision was made to expose the spleen before 1×10^6 cells in 100 µL was injected into the spleen. […]
# mg/kg) was administered to mice (n=12) each week (qw) over 8 weeks and surface liver and colon metastatic nodules were counted for each group (n=12) upon study termination. Spleen and liver weights were also measured as indirect assessment of […]
# In relevant models, solid tumours were measured in two dimensions (length and width) and the tumour volume (mm3) calculated using the equation V = length × width2 × π/6.The anti-tumour activity was assessed by the comparison of the mean tumour volume of the treated groups to the mean tumour volume of the control group and expressed as the percent Tumour Growth Inhibition (TGI) using the equation: […]
# [2] = test system: B16F0 lung metastases; test: B16F0 experimental lung metastasis model; format: in vivo, C57Bl6 mice; details: 20 mg kg^−1
# Method: as §1
# antibody. […]
# staining. For quantification, three independent visual fields (20x magnification) were chosen and positive stained spots or vessels with identifiable lumen were counted.
# Angiogenesis inhibition and induction were calculated using the equations: […]
# regimen both before and after tumour cell inoculation (days -6, -3, 0, +3, +6) or only after tumour cell inoculation (days 0, +3, +6). B16 cell (2x105) were inoculated via tail vein injections and mice were culled and assessed for lung metastases on day 12. […]
# [3] = qw, 20 mg kg^−1, after 8th week of administration
smiles,measurement,setting,value
CC(C)CCC[C@@H](C)[C@H]1CCC2C3CCC4C[C@@H](O[C@@H]5O[C@H](COS(=O)(=O)[O-])[C@@H](O[C@H]6O[C@H](COS(=O)(=O)[O-])[C@@H](O[C@H]7O[C@H](COS(=O)(=O)[O-])[C@@H](O[C@H]8O[C@H](COS(=O)(=O)[O-])[C@@H](OS(=O)(=O)[O-])[C@H](OS(=O)(=O)[O-])[C@H]8OS(=O)(=O)[O-])[C@H](OS(=O)(=O)[O-])[C@H]7OS(=O)(=O)[O-])[C@H](OS(=O)(=O)[O-])[C@H]6OS(=O)(=O)[O-])[C@H](OS(=O)(=O)[O-])[C@H]5OS(=O)(=O)[O-])CC[C@]4(C)C3CC[C@@]21C.[Na+].[Na+].[Na+].[Na+].[Na+].[Na+].[Na+].[Na+].[Na+].[Na+].[Na+].[Na+].[Na+] (some centres unmarked) [PG545],primary tumour growth,[1]; 20 mg kg^−1 qw over 8 weeks,significantly reduced primary tumour growth
same,TGI (colon metastases),[1]; [3],93%
same,TGI (liver metastases),[1]; [3],100%
same,TGI (lung metastases),"[2]; days 0, +3, +6",62%
same,TGI (lung metastases),"[2]; days −6, −3, 0, +3, +6",99%
